# Test results taken from patent US20250144067A1, “PERSONALIZED STARVATION THERAPY FOR CANCER” (Faeth Therapeutics, Inc., priority 2021, published 2025).
# Structures can show the parent of a compound that is named as a salt. Where two headings read alike, the source gives them in different places.
# Experiments:
# [1] = test system: NCI-H292 lung cancer cells; experiment: FDA drug screening, complete media vs cholesterol-free media without statin (TABLE 1); assay type: cell-based, human
# [2] = test system: NCI-H292 lung cancer cells; experiment: FDA drug screening, complete media vs cholesterol-free media with simvastatin (TABLE 2); assay type: cell-based, human
# [3] = Complete minus Cholesterol-free, greater than 0 enhanced anti-cancer activity, about 0 neutral, below 0 antagonists
# [4] = NCI-H292 cells in cholesterol-free media without statin
# [5] = NCI-H292 cells in complete media
# [6] = NCI-H292 cells, FDA drug library screen, cholesterol-free media with simvastatin 0.04 μM
# [7] = NCI-H292 cells, FDA drug library screen, complete media
# [8] = complete media vs cholesterol-free media + simvastatin (0.04 μM), >0 enhanced anti-cancer activity, about 0 neutral, <0 antagonist
# [9] = Complete minus Cholesterol-free, >0 enhanced anti-cancer activity, about 0 neutral, <0 antagonist
# [10] = NCI-H292 cells, cholesterol-free media without statin, FDA drug library screen
# [11] = NCI-H292 cells, complete media, FDA drug library screen
# [12] = NCI-H292 cells, FDA library drug in cholesterol-free media with simvastatin 0.04 μM
# [13] = NCI-H292 cells, FDA library drug in complete media
# [14] = Complete minus Cholesterol-free, […]
# [15] = NCI-H292 cells, FDA drug library screen, cholesterol-free media without statin
# [16] = NCI-H292 cells, cholesterol-free media with simvastatin 0.04 μM, FDA drug library screen (TABLE 2)
# [17] = NCI-H292 cells, complete media, FDA drug library screen (TABLE 2)
# [18] = Complete minus Cholesterol-free, greater than 0 enhanced anti-cancer activity, about 0 neutral, below 0 antagonist
# [19] = complete media minus cholesterol-free media + simvastatin (0.04 μM), >0 enhanced anti-cancer activity, about 0 neutral, <0 antagonist
# [20] = NCI-H292 cells, cholesterol-free media without statin
# [21] = complete media minus cholesterol-free media + simvastatin, >0 enhanced anti-cancer activity, about 0 neutral, <0 antagonist
# [22] = complete vs cholesterol-free media, >0 enhanced anti-cancer activity, about 0 neutral, <0 antagonist
# [23] = NCI-H292 cells, cholesterol-free media with simvastatin 0.04 μM, cell growth value in FDA drug screen
# [24] = NCI-H292 cells, complete media, cell growth value in FDA drug screen
# [25] = NCI-H292 cells, drug in cholesterol-free media with simvastatin 0.04 μM
# [26] = NCI-H292 cells, drug in complete media
compound,measurement,setting,value
CN(C(=O)CN(CCO)CC(=O)N(C)C(C)(C)Cc1ccccc1)C(C)(C)Cc1ccccc1 [Oxethazaine],Difference,[1]; [3],−1.45
same,Cholesterol-free,[1]; [4],2.442
same,Complete,[1]; [5],0.9966
same,Cholesterol-free media + simvastatin (0.04 μM),[2]; [6],1.131
same,Complete Media,[2]; [7],0.9874
same,Difference,[2]; [8],−0.14
O=C(O)[C@H]1/C(=C/CO)O[C@@H]2CC(=O)N21 [Clavulanate (lithium)],Difference,[1]; [9],0.07
same,Cholesterol-free,[1]; [10],1.545
same,Complete,[1]; [11],1.617
same,Cholesterol-free media + simvastatin (0.04 μM),[2]; [12],1.974
same,Complete Media,[2]; [13],1.387
same,Difference,[2]; [8],−0.59
Cc1coc2c1C(=O)C(=O)c1c-2ccc2c(C)cccc12 [Tanshinone I],Difference,[1]; [14],−0.07
same,Cholesterol-free,[1]; [15],0.8572
same,Complete,[1]; [7],0.783
same,Cholesterol-free media + simvastatin (0.04 μM),[2]; [16],0.9012
same,Complete Media,[2]; [17],0.8645
same,Difference,"[2]; complete media minus cholesterol-free media + simvastatin (0.04 μM), […]",−0.04
NCCC(O)(P(=O)(O)O)P(=O)(O)O [Pamidronic acid],Difference,[1]; [18],−0.18
same,Cholesterol-free,[1]; [15],0.8132
same,Complete,[1]; [7],0.6309
same,Cholesterol-free media + simvastatin (0.04 μM),[2]; [16],1.09
same,Complete Media,[2]; [17],1.049
same,Difference,[2]; [19],−0.04
Gemifloxacin (mesylate),Difference,[1]; [9],−0.22
same,Cholesterol-free,[1]; [20],1.118
same,Complete,"[1]; NCI-H292 cells, complete media",0.9009
same,Cholesterol-free media + simvastatin (0.04 μM),[2]; [6],0.9496
same,Complete Media,[2]; [7],1.098
same,Difference,[2]; [21],0.15
O=[N+]([O-])c1ccc(O)c2ncccc12 [Nitroxoline],Cholesterol-free,[1]; [10],0.8448
same,Complete,[1]; [11],1.027
same,Difference,[1]; [22],0.18
same,Cholesterol-free media + simvastatin (0.04 μM),[2]; [6],1.871
same,Complete Media,[2]; [7],1.743
same,Difference,[2]; [8],−0.13
Prednisolone (hemisuccinate),Cholesterol-free,[1],0.8784
same,Complete,[1],0.4751
same,Difference,[1],−0.40
same,Cholesterol-free media + simvastatin (0.04 μM),[2],0.7218
same,Difference,[2],0.06
O=C(O)CCC(=O)O [Succinic acid],Cholesterol-free,[1]; [10],0.9807
same,Complete,[1]; [11],1.143
same,Difference,[1]; [22],0.16
same,Cholesterol-free media + simvastatin (0.04 μM),[2]; [16],1.729
same,Complete Media,[2]; [17],1.686
same,Difference,[2]; [19],−0.04
CC(CCc1ccccc1)NCC(O)c1ccc(O)c(C(N)=O)c1 (stereo not drawn) [Labetalol (hydrochloride)],Difference,[1]; [3],−0.64
same,Complete,[1]; [5],0.9816
same,Cholesterol-free media + simvastatin (0.04 μM),[2]; [16],1.147
same,Complete Media,[2]; [17],1.128
same,Difference,[2]; [19],−0.02
C=C1CC[C@@H]2[C@](C)(CO)[C@H](O)CC[C@@]2(C)[C@@H]1/C=C/C1=CCOC1=O [Dehydroandrographolide],Difference,[1]; [14],−0.24
same,Cholesterol-free,[1]; [20],0.9695
same,Complete,"[1]; NCI-H292 cells, complete media",0.7339
same,Cholesterol-free media + simvastatin (0.04 μM),[2]; [12],1.79
same,Complete Media,[2]; [13],1.432
same,Difference,"[2]; complete media vs cholesterol-free media + simvastatin (0.04 μM), […]",−0.36
Cc1cc(CC(C)CC(C)(C)C)n(O)c(=O)c1.NCCO (stereo not drawn) [Piroctone olamine],Difference,[1]; [9],−0.05
same,Cholesterol-free,[1]; [10],0.04765
same,Complete,[1]; [11],0.0002612
same,Cholesterol-free media + simvastatin (0.04 μM),[2]; [23],0
same,Complete Media,[2]; [24],0.02737
same,Difference,[2]; [21],0.03
C[C@@H]1CCN(C(=O)CC#N)C[C@@H]1N(C)c1ncnc2[nH]ccc12 [Tofacitinib],Difference,[1]; [9],−0.07
same,Cholesterol-free,[1]; [10],1.303
same,Complete,[1]; [11],1.238
same,Cholesterol-free media + simvastatin (0.04 μM),[2]; [23],1.188
same,Complete Media,[2]; [24],1.224
same,Difference,[2]; [21],0.04
CCN1CCCC1CNC(=O)c1cc(S(N)(=O)=O)ccc1OC (stereo not drawn) [Sulpiride],Difference,[1]; [9],−0.22
same,Cholesterol-free,[1]; [20],1.254
same,Complete,"[1]; NCI-H292 cells, complete media",1.03
same,Cholesterol-free media + simvastatin (0.04 μM),[2]; [16],1.077
same,Complete Media,[2]; [17],1.053
same,Difference,[2]; [19],−0.02
COC(=O)c1ccc2c(c1)NC(=O)/C2=C(\Nc1ccc(N(C)C(=O)CN2CCN(C)CC2)cc1)c1ccccc1 [Nintedanib],Difference,[1]; [18],−0.17
same,Cholesterol-free,[1]; [15],0.7067
same,Complete,[1]; [7],0.5362
same,Cholesterol-free media + simvastatin (0.04 μM),[2]; [16],0.7141
same,Complete Media,[2]; [17],0.7297
same,Difference,[2]; [19],0.02
Cc1ccc(Nc2nccc(N(C)c3ccc4c(C)n(C)nc4c3)n2)cc1S(N)(=O)=O [Pazopanib],Difference,[1]; [9],0.02
same,Cholesterol-free,[1]; [10],1.084
same,Complete,[1]; [11],1.105
same,Cholesterol-free media + simvastatin (0.04 μM),[2]; [6],1.156
same,Complete Media,[2]; [7],1.457
same,Difference,[2]; [21],0.30
CSc1nc2cc(Cl)c(Oc3cccc(Cl)c3Cl)cc2[nH]1 [Triclabendazole],Difference,[1]; [3],−0.64
same,Cholesterol-free,[1]; [4],1.673
same,Complete,[1]; [5],1.028
same,Complete Media,[2]; [7],1.193
same,Difference,[2]; [21],0.25
Lasofoxifene (Tartrate),Cholesterol-free,[1]; [20],1.19
same,Complete,"[1]; NCI-H292 cells, complete media",0.7569
same,Difference,"[1]; complete vs cholesterol-free media, […]",−0.43
same,Cholesterol-free media + simvastatin (0.04 μM),[2]; [6],0.6494
same,Complete Media,[2]; [7],0.9428
same,Difference,"[2]; complete media minus cholesterol-free media + simvastatin, […]",0.29
CCOc1ccc(Cc2cc([C@]34OC[C@](CO)(O3)[C@@H](O)[C@H](O)[C@H]4O)ccc2Cl)cc1 [Ertugliflozin],Difference,[1]; [18],−0.08
same,Cholesterol-free,[1]; [15],1.071
same,Complete,[1]; [7],0.9907
same,Cholesterol-free media + simvastatin (0.04 μM),[2]; [23],1.703
same,Complete Media,[2]; [24],1.808
same,Difference,[2]; [21],0.10
CCS(=O)(=O)CCn1c([N+](=O)[O-])cnc1C [Tinidazole],Difference,[1]; [18],−0.13
same,Cholesterol-free,[1]; [15],1.121
same,Complete,[1]; [7],0.9876
same,Cholesterol-free media + simvastatin (0.04 μM),[2]; [25],0.8398
same,Complete Media,[2]; [26],0.6611
same,Difference,[2]; [8],−0.18
C=CCc1ccc(O)c(OC)c1 [Eugenol],Cholesterol-free,[1]; [20],1.418
same,Complete,"[1]; NCI-H292 cells, complete media",1.048
same,Difference,"[1]; complete vs cholesterol-free media, greater than 0 enhanced anti-cancer activity, about 0 neutral, below 0 antagonists",−0.37
same,Cholesterol-free media + simvastatin (0.04 μM),[2]; [6],0.8347
same,Complete Media,[2]; [7],1.009
same,Difference,[2]; [21],0.17
CC(=O)OC[C@H]1O[C@@H](n2ccc(=O)[nH]c2=O)[C@H](OC(C)=O)[C@@H]1OC(C)=O [Uridine triacetate],Cholesterol-free,[1]; [10],1.055
same,Complete,[1]; [11],1.37
same,Difference,[1]; [22],0.32
same,Cholesterol-free media + simvastatin (0.04 μM),[2]; [25],1.076
same,Complete Media,[2]; [26],0.8641
same,Difference,[2]; [8],−0.21
CCCCCCCCCCCCCCCCOP(=O)([O-])OCC[N+](C)(C)C [Miltefosine],Difference,[1]; [9],−0.07
same,Cholesterol-free,[1]; [10],1.003
same,Complete,[1]; [11],0.9345
same,Cholesterol-free media + simvastatin (0.04 μM),[2]; [25],1.237
same,Complete Media,[2]; [26],0.9911
same,Difference,[2]; [8],−0.25
N#Cc1ccc(Oc2ccc3c(c2)COB3O)cc1 [Crisaborole],Difference,[1]; [18],−0.14
same,Cholesterol-free,[1]; [15],1.199
same,Complete,[1]; [7],1.059
same,Cholesterol-free media + simvastatin (0.04 μM),[2]; [12],1.417
same,Complete Media,[2]; [13],0.9479
same,Difference,[2]; [8],−0.47
Cc1ncc([N+](=O)[O-])n1CC(C)O (stereo not drawn) [Secnidazole],Cholesterol-free,[1]; [10],1.105
same,Complete,[1]; [11],1.528
same,Difference,[1]; [22],0.42
same,Cholesterol-free media + simvastatin (0.04 μM),[2]; [16],1.474
same,Complete Media,[2]; [17],1.409
same,Difference,[2]; [19],−0.07
